The values below come from patent publication US4469634A, “Allyloxy- and allylthio-2,3,4,5-tetrahydro-1H-3-benzazepines” (SmithKline Beckman Corporation, priority 1982, dated 1984).

One experiment concerns the target T1, alpha2-adrenoceptor (Cavia porcellus, UniProt Q60474).
T1 construct: The left atrium is removed, dissected free of extraneous tissue and mounted in a 2 ml superfusion chamber; from tissue; host or cells: left atrium of male guinea pig (sympathetic nerve terminals)
T1 sequence (Q60474 1-464): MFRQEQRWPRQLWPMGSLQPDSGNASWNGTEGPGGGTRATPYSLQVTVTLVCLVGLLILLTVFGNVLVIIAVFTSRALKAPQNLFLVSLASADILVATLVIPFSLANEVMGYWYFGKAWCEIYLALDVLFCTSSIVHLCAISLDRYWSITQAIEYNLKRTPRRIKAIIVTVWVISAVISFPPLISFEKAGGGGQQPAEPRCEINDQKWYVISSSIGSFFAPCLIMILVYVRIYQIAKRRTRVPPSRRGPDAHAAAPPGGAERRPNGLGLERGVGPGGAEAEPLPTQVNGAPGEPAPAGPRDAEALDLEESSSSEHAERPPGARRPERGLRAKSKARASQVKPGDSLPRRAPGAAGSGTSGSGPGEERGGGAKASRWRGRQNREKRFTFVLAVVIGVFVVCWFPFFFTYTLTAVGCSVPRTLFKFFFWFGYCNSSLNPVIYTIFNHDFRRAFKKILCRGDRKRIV
Briefly: prejunctional alpha2-antagonist activity in isolated superfused guinea pig left atrium (shift of clonidine concentration-response curve). The format is cell-based. As to the method:
Briefly, the heart is removed from a pentobarbital-anesthetized male guinea pig. The left atrium is removed, dissected free of extraneous tissue and mounted in a 2 ml superfusion chamber. The tissue is paced at 60 pulse/minute and the sympathetic nerves excited at 6 minute intervals by field stimulation. The response to nerve stimulation is measured as the difference in contractile force between the basal contraction and peak contraction following a nerve stimulation. A concentration-response curve for clonidine (a known alpha2 -agonist) is prepared by administering increasing concentrations of clonidine following each successive stimulation. The tissue is, then, superfused with the alpha2 -antagonist to be tested for thirty minutes and the clonidine concentration-effect curve is repeated in the presence of antagonist. The receptor dissociation constant of the antagonist (KB) is defined as the antagonist concentration required to shift the log concentration-response curve of the agonist to the right by a factor of 2.
Pharmacol. 309 217-224 (1979).

The subject of another experiment is platelet. Description: platelet test (method not described). In kind it is cell-based.

Where a name gives a salt, the structure may show the parent alone. Read-outs that look alike come from different tables or passages of the source.

For the compound `C=CCOc1cccc2c1CCN(C)CC2` [Example 5, 6-allyloxy-3-methyl-2,3,4,5-tetrahydro-1H-3-benzazepinehydrochloride], the Kb at alpha2-adrenoceptor (isolated superfused guinea pig left atrium, clonidine as agonist, antagonist superfused thirty minutes, read-out: KB, guinea pig atrium (receptor dissociation constant of the antagonist)) is 160 nM.

For `C=CCSc1ccc2c(c1)CCNCC2` [Example 1, 7-allylthio-2,3,4,5-tetrahydro-1H-3-benzazepine hydrochloride], the Kb on alpha2-adrenoceptor is 380 nM.

Regarding `C=CCOc1ccc(Cl)c2c1CCN(C)CC2` [Example 2, 9-allyloxy-6-chloro-3-methyl-2,3,4,5-tetrahydro-1H-3-benzazepine hydrochloride], at alpha2-adrenoceptor, the Kb came out at 320 nM. The compound further showed a concentration for a half-maximal effect (EC50) in the experiment with platelet of 90 nM.
